# Assay results taken from patent US11510926B2, “Pharmaceutical salts/co-crystals of pentoxifylline, clonidine and linsidomine with caffeic, protocatechuic or alpha-lipoic acid an use thereof for treatment of pain” (priority 2018, dated 2022).
# Assays:
# CPIP rat model of CRPS [1] = test: Mechanical sensitivity (paw withdrawal threshold, von Frey) after topical application to the ipsilateral hind paw of CPIP rats; format: in vivo; details: for maximum change in PWTs after topical application: dose response comparison, Lin-CafA has half of the linsidomine content
# Description: Topical drugs were formulated into ointment-type preparation using a composite, water-soluble polyethylene glycol base system consisting of 40% carbowax (PEG 3350) and 60% PEG 400 (both from Sigma Aldrich). The required amounts of the active ingredients were first weighted out and then added to the already molten base and mixed well. The vehicle treatment consisted of the same water-miscible base ointment without the addition of the active drugs. The Chronic Post-ischemic Pain (CPIP) rat model of CRPS was prepared by inducing prolonged hind paw ischemia and subsequent reperfusion, as previously described by Coderre et. al., Pain, 112(1):94-105, 2004. In short, male Long Evans rats (300-400 g; Charles River, QC, Canada) were anesthetized over a 3-hour period with a bolus (55 mg/kg, intraperitoneally [i.p.]) followed by chronic i.p. infusion (0.15 mL/hour) of sodium pentobarbital (Ceva Sante Animale, Libourne, France) for 2 hours. Following induction of anesthesia, a Nitrile 70 Durometer O-ring (O-rings West, Seattle, Wash.) with an internal diameter of 5.5-mm was slipped around the rat's left hind limb proximal to the ankle joint to effect a complete blockade of arterial blood flow ([…] al., Mol Pain, 4:49, 2008). The ring was left in place for 3 hours, and the rats recovered from anesthesia 30 to 60 minutes following reperfusion. Mechanical Sensitivity Testing As a measure of mechanical sensitivity, paw withdrawal threshold (PWT), was tested on plantar surface of the ipsilateral hind paw of the CPIP rats. The rats were first habituated for 30 minutes in the testing chambers. Nylon monofilaments (von Frey hairs) with thickness designed to apply stimulus intensity ranging between 1 g and 15 g were applied to the plantar surface of the rats' hind-paw. The filaments were applied for 10 seconds or until flexion reflex occurred. PWTs were determined using Chaplan's up and down method after testing with the filaments in either ascending (after negative response) or descending (after positive response) order to find the correct response pattern which was later matched with its corresponding 50% threshold of paw withdrawal (Chaplan et al., J Neurosci Methods, 53:55-63, 1994). Time course measurements of PWTs after vehicle and drug administration were subjected to a repeated measure analysis of variance (ANOVA). Pairwise comparison was performed between PWTs obtained from drug and vehicle treatment groups measured at matching post-treatment times using Tukey's HSD test. Cumulative anti-allodynic effect measured over 180-minute time course experiments was assessed by calculating the area under the curve (AUC) of PWT elevations plotted post-topical application. Comparisons of different drug doses versus vehicle were performed using repeated measure ANOVA followed by Tukey's HSD test. Dose response curves for comparison of anti-allodynic potency were plotted on a semi-log scale with the amount of drug used per application on the X-axis and the AUC of the 180-minute PWT measured or change in PWT obtained post-drug application on the Y-axis. The linear regression of the dose-response curves was then calculated, and their difference analysed using a 1-way ANOVA. The synthesized salts/co-crystals of […], clonidine and […] were formulated into a polyethylene based topical ointment and their analgesic efficacy and potency tested and compared to their parent drugs on the CPIP rat model of CRPS.
# CPIP rat model of CRPS [2] = test: Systemic absorption control: topical application to the uninjured contralateral paw, PWT of the injured CRPS paw; format: in vivo; details: concentration previously shown to relieve allodynia; PWT of injured paw at 30, 60, 120 and 180 minutes
# Procedure: Mechanical Sensitivity Testing As a measure of mechanical sensitivity, paw withdrawal threshold (PWT), was tested on plantar surface of the ipsilateral hind paw of the CPIP rats. The rats were first habituated for 30 minutes in the testing chambers. Nylon monofilaments (von Frey hairs) with thickness designed to apply stimulus intensity ranging between 1 g and 15 g were applied to the plantar surface of the rats' hind-paw. The filaments were applied for 10 seconds or until flexion reflex occurred. PWTs were determined using Chaplan's up and down method after testing with the filaments in either ascending (after negative response) or descending (after positive response) order to find the correct response pattern which was later matched with its corresponding 50% threshold of paw withdrawal (Chaplan et al., J Neurosci Methods, 53:55-63, 1994).
# To assess for any contribution systemic absorption might have to the anti-allodynic effects seen with the novel salts and co-crystals, we performed a control experiment using contralateral topical administration of the compounds. A topical preparation of the salts and co-crystals at a concentration proven to produce anti-allodynia, was applied to the uninjured contralateral paw of the CRPS rats and the effect this had on the PWT of the injured CRPS paw was measured at 30, 60, 120 and 180 minutes post topical application. The PWT obtained at 30, 60, 120 and 180 minutes post topical application were then compared with the values obtained after direct topical application on the injured CPRS paw.
compound,measurement,setting,value
"O=C(O)/C=C/c1ccc(O)c(O)c1 [CafA, caffeic acid, reference compound]",anti-allodynic effects of topical administration on its own,"CPIP rat model of CRPS [1]; CafA alone, FIG. 9C",no anti-allodynic effects
same,anti-allodynic effect upon topical application,"CPIP rat model of CRPS [1]; CafA alone, three concentrations corresponding to W/W levels in the Pntx-CafA co-crystal, n=10",no anti-allodynic effect
"Clc1cccc(Cl)c1NC1=NCCN1.O=C(O)CCCCC1CCSS1 [Clon-ALA, clonidine α-lipoate]",rise in PWTs compared to vehicle,"CPIP rat model of CRPS [1]; 0.025% w/w, 30 minutes post-application",significant rise in PWTs
same,duration of elevated PWTs,"CPIP rat model of CRPS [1]; 0.05% w/w, compared to 0.025% (30 minutes)",stay significantly higher for twice as long
same,increase in potency,CPIP rat model of CRPS [1]; Clon-ALA compared to Clon-HCl,~2 ×
same,leftward shift of x-intercept of the dose response curve,"CPIP rat model of CRPS [1]; Clon-ALA compared to Clon-HCl, p=0.04",0.265 log units
same,relief of mechanical hypersensitivity,"CPIP rat model of CRPS [1]; topical Clon-ALA, different doses, n=7","dose-dependently, relieves mechanical hypersensitivity"
same,anti-allodynic effects when applied to the contralateral (uninjured) paw,CPIP rat model of CRPS [2],no anti-allodynic effects
"Nc1c[n+](N2CCOCC2)no1.O=C([O-])/C=C/c1ccc(O)c(O)c1 [Lin-CafA, linsidomine caffeate]",elevation of PWTs compared to vehicle,"CPIP rat model of CRPS [1]; 1.6% w/w, 30, 60 and 120 minutes post-application",significantly elevates PWTs to non-allodynic values
same,increase in potency,CPIP rat model of CRPS [1]; Lin-CafA compared to Lin-Cl,~2.5 fold
same,leftward shift of x-intercept of the dose response curve,"CPIP rat model of CRPS [1]; Lin-CafA compared to Lin-Cl, p=0.0026",0.3966 log units
same,efficacy and potency compared with linsidomine chloride,CPIP rat model of CRPS [1]; comparison of dose response curves,greater efficacy and potency
same,maximum change in PWTs after topical application,CPIP rat model of CRPS [1],9.6±1.15
same,anti-allodynic effect compared to vehicle,"CPIP rat model of CRPS [1]; topical W/W 1.6% and 0.8%, for as long as 120 minutes post-application, n=9",significant anti-allodynic effect
same,anti-allodynic effects when applied to the contralateral (uninjured) paw,CPIP rat model of CRPS [2],no anti-allodynic effects
"O=C(O)c1ccc(O)c(O)c1 [PCA, protocatechuic acid, reference compound]",anti-allodynic effect compared to vehicle,"CPIP rat model of CRPS [1]; PCA alone, topical, at the w/w doses contained in the Pntx-PCA co-crystal",does not produce significant anti-allodynic effects
"CC(=O)CCCCn1c(=O)c2c(ncn2C)n(C)c1=O.O=C(O)C=Cc1ccc(O)c(O)c1 [Pntx-CafA, pentoxifylline caffeate]",anti-allodynic potency in linear segment of dose-response curve,CPIP rat model of CRPS [1]; Pntx-CafA 2% W/W and 1% W/W compared to Pntx alone,more potent anti-allodynic effect
same,elevation of PWTs compared to vehicle,"CPIP rat model of CRPS [1]; topical 2% W/W, 60, 120 and 180 minutes post application, n=10",significant and sustained elevation of PWTs
same,anti-allodynic effect at higher dose,CPIP rat model of CRPS [1]; topical 4% W/W compared to 2% W/W,did not improve
"[NH-]c1c[n+](N2CCOCC2)no1 [linsidomine chloride, reference compound]",maximum change in PWTs after topical application,CPIP rat model of CRPS [1],6.23±0.99
pentoxifylline protocatechuate [Pntx-PCA],cumulative 3-hour anti-allodynic effect,CPIP rat model of CRPS [1]; 2.5% W/W Pntx-PCA (1.5% Pntx and 1% PCA) compared to 3.5% Pntx and 2% PCA W/W,significantly exceeds the effect achieved by double the amount of its constituent drugs
same,increase in potency,"CPIP rat model of CRPS [1]; Pntx-PCA compared to Pntx, from shift of log-dose response curve",~4 fold
same,leftward shift of the log-dose response curve,"CPIP rat model of CRPS [1]; Pntx-PCA compared to Pntx, p=0.0113",0.59 log units
same,anti-allodynic effect (PWT) compared to ointment base alone,"CPIP rat model of CRPS [1]; topical 5 and 10% W/W, ipsilateral hind paw, 30 to 60 minutes post-application, n=8",significant anti-allodynic effects
same,anti-allodynic effects when applied to the contralateral (uninjured) paw,CPIP rat model of CRPS [2],no anti-allodynic effects
pentoxifylline-gallic acid [Pntx-GallA],anti-allodynic effects of topical formulations,"CPIP rat model of CRPS [1]; Pntx-GallA, CRPS rats, overall",modest anti-allodynic effects
same,difference in change in PWT versus respective doses of Pntx,"CPIP rat model of CRPS [1]; different doses, 3 hours of testing following topical application",no significant measurable difference
same,improvement in PWT compared to vehicle,"CPIP rat model of CRPS [1]; observed at the only dose of 4% W/W, p<0.05",significant improvement in PWT
